Measurements taken from ChEMBL document CHEMBL1127612, “Maleimidoethyl 3-(tri-n-butylstannyl)hippurate: a useful radioiodination reagent for protein radiopharmaceuticals to enhance target selective radioactivity localization” (J Med Chem, 1994).

Experiments:
Mus musculus [1] = assay: Tested for biodistribution of radioactivity after 1 hr of intravenous injection in mice blood; assay type: ADME, organism-based; details: in vivo
Mus musculus [2] = assay: Tested for biodistribution of radioactivity after 30 min of intravenous injection in mice blood; assay type: ADME, organism-based; details: in vivo, 0.5 h
Mus musculus [3] = assay: Tested for biodistribution of radioactivity after 3h of intravenous injection in mice blood; assay type: ADME, organism-based; details: in vivo
Mus musculus [4] = assay: Tested for biodistribution of radioactivity after 6 hr of intravenous injection in mice blood; assay type: ADME, organism-based; details: in vivo
Mus musculus [5] = assay: Tested for biodistribution of radioactivity after 5 min of intravenous injection in mice liver; assay type: ADME, organism-based; details: in vivo
Mus musculus [6] = assay: Tested for biodistribution of radioactivity after 5 min of intravenous injection in mice neck; assay type: ADME, organism-based; details: in vivo
Mus musculus [7] = assay: Tested for biodistribution of radioactivity after 5 min of intravenous injection in mice spleen; assay type: ADME, organism-based; details: in vivo
Mus musculus [8] = assay: Tested for biodistribution of radioactivity after 5 min of intravenous injection in mice stomach; assay type: ADME, organism-based; details: in vivo
Mus musculus [9] = assay: Tested for biodistribution of radioactivity after 5 min of intravenous injection in mice kidneys; assay type: ADME, organism-based; details: in vivo
Mus musculus [10] = assay: Tested for biodistribution of radioactivity after 6 hr of intravenous injection in mice feces; assay type: ADME, organism-based; details: in vivo
Mus musculus [11] = assay: Tested for biodistribution of radioactivity after 6 hr of intravenous injection in mice intestines; assay type: ADME, organism-based, Intestine; details: in vivo
Mus musculus [12] = assay: Tested for biodistribution of radioactivity after 6 hr of intravenous injection in mice kidneys; assay type: ADME, organism-based, Kidney; details: in vivo
Mus musculus [13] = assay: Tested for biodistribution of radioactivity after 6 hr of intravenous injection in mice liver; assay type: ADME, organism-based; details: in vivo
Mus musculus [14] = assay: Tested for biodistribution of radioactivity after 6 hr of intravenous injection in mice neck; assay type: ADME, organism-based; details: in vivo
Mus musculus [15] = assay: Tested for biodistribution of radioactivity after 30 min of intravenous injection in mice neck; assay type: ADME, organism-based; details: in vivo, 0.5 h
Mus musculus [16] = assay: Tested for biodistribution of radioactivity after 30 min of intravenous injection in mice spleen; assay type: ADME, organism-based; details: in vivo, 0.5 h
Mus musculus [17] = assay: Tested for biodistribution of radioactivity after 30 min of intravenous injection in mice stomach; assay type: ADME, organism-based; details: in vivo, 0.5 h
Mus musculus [18] = assay: Tested for biodistribution of radioactivity after 3h of intravenous injection in mice intestines; assay type: ADME, organism-based, Intestine; details: in vivo
Mus musculus [19] = assay: Tested for biodistribution of radioactivity after 3h of intravenous injection in mice kidneys; assay type: ADME, organism-based, Kidney; details: in vivo
Mus musculus [20] = assay: Tested for biodistribution of radioactivity after 3h of intravenous injection in mice neck; assay type: ADME, organism-based; details: in vivo
Mus musculus [21] = assay: Tested for biodistribution of radioactivity after 3h of intravenous injection in mice spleen; assay type: ADME, organism-based; details: in vivo
Mus musculus [22] = assay: Tested for biodistribution of radioactivity after 3h of intravenous injection in mice stomach; assay type: ADME, organism-based; details: in vivo
Mus musculus [23] = assay: Tested for biodistribution of radioactivity after 1 hr of intravenous injection in mice intestines; assay type: ADME, organism-based, Intestine; details: in vivo
Mus musculus [24] = assay: Tested for biodistribution of radioactivity after 1 hr of intravenous injection in mice liver; assay type: ADME, organism-based; details: in vivo
Mus musculus [25] = assay: Tested for biodistribution of radioactivity after 6 hr of intravenous injection in mice spleen; assay type: ADME, organism-based; details: in vivo
Mus musculus [26] = assay: Tested for biodistribution of radioactivity after 6 hr of intravenous injection in mice stomach; assay type: ADME, organism-based; details: in vivo
Mus musculus [27] = assay: Tested for biodistribution of radioactivity after 6 hr of intravenous injection in mice urine; assay type: ADME, organism-based; details: in vivo
Mus musculus [28] = assay: Tested for biodistribution of radioactivity after 1 hr of intravenous injection in mice neck; assay type: ADME, organism-based; details: in vivo
Mus musculus [29] = assay: Tested for biodistribution of radioactivity after 1 hr of intravenous injection in mice spleen; assay type: ADME, organism-based; details: in vivo
Mus musculus [30] = assay: Tested for biodistribution of radioactivity after 1 hr of intravenous injection in mice stomach; assay type: ADME, organism-based; details: in vivo
Mus musculus [31] = assay: Tested for biodistribution of radioactivity after 24 hr of intravenous injection in mice feces; assay type: ADME, organism-based; details: in vivo
Mus musculus [32] = assay: Tested for biodistribution of radioactivity after 24 hr of intravenous injection in mice intestines; assay type: ADME, organism-based, Intestine; details: in vivo
Mus musculus [33] = assay: Tested for biodistribution of radioactivity after 24 hr of intravenous injection in mice kidneys; assay type: ADME, organism-based, Kidney; details: in vivo
Mus musculus [34] = assay: Tested for biodistribution of radioactivity after 24 hr of intravenous injection in mice liver; assay type: ADME, organism-based; details: in vivo
Mus musculus [35] = assay: Tested for biodistribution of radioactivity after 24 hr of intravenous injection in mice neck; assay type: ADME, organism-based; details: in vivo
Mus musculus [36] = assay: Tested for biodistribution of radioactivity after 24 hr of intravenous injection in mice spleen; assay type: ADME, organism-based; details: in vivo
Mus musculus [37] = assay: Tested for biodistribution of radioactivity after 24 hr of intravenous injection in mice stomach; assay type: ADME, organism-based; details: in vivo
Mus musculus [38] = assay: Tested for biodistribution of radioactivity after 30 min of intravenous injection in mice kidneys; assay type: ADME, organism-based; details: in vivo, 0.5 h
Mus musculus [39] = assay: Tested for biodistribution of radioactivity after 30 min of intravenous injection in mice lintestines; assay type: ADME, organism-based, Intestine; details: in vivo, 0.5 h
Mus musculus [40] = assay: Tested for biodistribution of radioactivity after 30 min of intravenous injection in mice liver; assay type: ADME, organism-based; details: in vivo, 0.5 h
Mus musculus [41] = assay: Tested for biodistribution of radioactivity after 3h of intravenous injection in mice liver; assay type: ADME, organism-based; details: in vivo
Mus musculus [42] = assay: Tested for biodistribution of radioactivity after 1 hr of intravenous injection in mice kidneys; assay type: ADME, organism-based, Kidney; details: in vivo
Mus musculus [43] = assay: Tested for biodistribution of radioactivity after 24 hr of intravenous injection in mice urine; assay type: ADME, organism-based; details: in vivo
Mus musculus [44] = assay: Tested for biodistribution of radioactivity after 24 hr of intravenous injection in mice blood; assay type: ADME, organism-based; details: in vivo
Mus musculus [45] = assay: Tested for biodistribution of radioactivity after 5 min of intravenous injection in mice blood; assay type: ADME, organism-based; details: in vivo
Mus musculus [46] = assay: Tested for biodistribution of radioactivity after 5 min of intravenous injection in mice intestines; assay type: ADME, organism-based, Intestine; details: in vivo

**Q.** Which Dose/g (Mus musculus [1]) does the source give for `CN[C@@H](CSC1CC(=O)N(CCOC(=O)CNC(=O)c2cccc(I)c2)C1=O)C(=O)O` (stereo partly specified) here?
**A.** The Dose/g was 0.24%.

**Q.** What about the Dose/g (Mus musculus [2]) of the same compound?
**A.** The Dose/g was 1.01%.

**Q.** What about the Dose/g (Mus musculus [3]) of the same compound?
**A.** Its Dose/g is 0.09%.

**Q.** What about the Dose/g (Mus musculus [4]) of the same compound?
**A.** Its Dose/g is 0.03%.

**Q.** What about the Dose/organ (Mus musculus [5]) of the same compound?
**A.** The Dose/organ was 92.56%.

**Q.** What about the Dose/organ (Mus musculus [6]) of the same compound?
**A.** The Dose/organ was 0.07%.

**Q.** And the Dose/organ (Mus musculus [7])?
**A.** The Dose/organ was 0.21%.

**Q.** What about the Dose/organ (Mus musculus [8]) of the same compound?
**A.** The Dose/organ was 0.18%.

**Q.** What about the Dose/organ (Mus musculus [9]) of the same compound?
**A.** The Dose/organ was 0.65%.

**Q.** What about the Dose/organ (Mus musculus [10]) of the same compound?
**A.** The Dose/organ was 2.3%.

**Q.** What about the Dose/organ (Mus musculus [11]) of the same compound?
**A.** The Dose/organ was 0.84%.

**Q.** And the Dose/organ (Mus musculus [12])?
**A.** Its Dose/organ is 0.06%.

**Q.** What about the Dose/organ (Mus musculus [13]) of the same compound?
**A.** The Dose/organ was 0.58%.

**Q.** And the Dose/organ (Mus musculus [14])?
**A.** The Dose/organ was 0.02%.

**Q.** And the Dose/organ (Mus musculus [15])?
**A.** The Dose/organ was 0.11%.

**Q.** What about the Dose/organ (Mus musculus [16]) of the same compound?
**A.** Its Dose/organ is 0.12%.

**Q.** And the Dose/organ (Mus musculus [17])?
**A.** Its Dose/organ is 0.59%.

**Q.** And the Dose/organ (Mus musculus [18])?
**A.** The Dose/organ was 2.54%.

**Q.** And the Dose/organ (Mus musculus [19])?
**A.** Its Dose/organ is 0.14%.

**Q.** And the Dose/organ (Mus musculus [20])?
**A.** The Dose/organ was 0.02%.

**Q.** What about the Dose/organ (Mus musculus [21]) of the same compound?
**A.** Its Dose/organ is 0.07%.

**Q.** And the Dose/organ (Mus musculus [22])?
**A.** The Dose/organ was 0.52%.

**Q.** And the Dose/organ (Mus musculus [23])?
**A.** The Dose/organ was 6.11%.

**Q.** What about the Dose/organ (Mus musculus [24]) of the same compound?
**A.** The Dose/organ was 3.98%.

**Q.** What about the Dose/organ (Mus musculus [25]) of the same compound?
**A.** Its Dose/organ is 0.07%.

**Q.** And the Dose/organ (Mus musculus [26])?
**A.** The Dose/organ was 0.45%.

**Q.** And the Dose/organ (Mus musculus [27])?
**A.** Its Dose/organ is 78.35%.

**Q.** And the Dose/organ (Mus musculus [28])?
**A.** Its Dose/organ is 0.06%.

**Q.** What about the Dose/organ (Mus musculus [29]) of the same compound?
**A.** The Dose/organ was 0.1%.

**Q.** What about the Dose/organ (Mus musculus [30]) of the same compound?
**A.** The Dose/organ was 0.56%.

**Q.** What about the Dose/organ (Mus musculus [31]) of the same compound?
**A.** Its Dose/organ is 3.52%.

**Q.** And the Dose/organ (Mus musculus [32])?
**A.** Its Dose/organ is 0.05%.

**Q.** And the Dose/organ (Mus musculus [33])?
**A.** Its Dose/organ is 0.02%.

**Q.** And the Dose/organ (Mus musculus [34])?
**A.** Its Dose/organ is 0.27%.

**Q.** And the Dose/organ (Mus musculus [35])?
**A.** The Dose/organ was 0.01%.

**Q.** And the Dose/organ (Mus musculus [36])?
**A.** The Dose/organ was 0.04%.

**Q.** And the Dose/organ (Mus musculus [37])?
**A.** Its Dose/organ is 0.05%.

**Q.** And the Dose/organ (Mus musculus [38])?
**A.** Its Dose/organ is 5.34%.

**Q.** What about the Dose/organ (Mus musculus [39]) of the same compound?
**A.** Its Dose/organ is 9.99%.

**Q.** And the Dose/organ (Mus musculus [40])?
**A.** Its Dose/organ is 12.28%.

**Q.** What about the Dose/organ (Mus musculus [41]) of the same compound?
**A.** Its Dose/organ is 1.56%.

**Q.** What about the Dose/organ (Mus musculus [42]) of the same compound?
**A.** Its Dose/organ is 2.79%.

**Q.** And the Dose/organ (Mus musculus [43])?
**A.** The Dose/organ was 90.6%.

**Q.** What about the Dose/g (Mus musculus [44]) of the same compound?
**A.** The Dose/g was 0.02%.

**Q.** And the Dose/g (Mus musculus [45])?
**A.** The Dose/g was 0.45%.

**Q.** And the Dose/organ (Mus musculus [46])?
**A.** The Dose/organ was 0.28%.
